Test results published in ChEMBL document CHEMBL5346945, “Discovery and Optimization of the First ATP Competitive Type-III c-MET Inhibitor” (J Med Chem, 2023).

How the values were obtained:
[1] = Metabolic stability in Han Wistar rat hepatocytes assessed as intrinsic clearance measured per million cells at 1 uM measured at 0.5 to 2 hrs by LC-MS/MS analysis; type: ADME, cell-based, Hepatocyte; details: time 0.5-2 hrs, read-out: CLH
[2] = Lipophilicity, logD of compound in octanol and water at pH 7.4 measured by shake-flask method; type: physicochemical
[3] = Metabolic stability in human liver microsomes assessed as intrinsic clearance at 1 uM preincubated with NADPH for 8 mins followed by compound addition measured at 0.5 to 30 mins by LC-MS/MS analysis; type: ADME, Microsome; details: time 0.5-30 min, read-out: CLH
[4] = biological target: T1, Hepatocyte growth factor receptor (Homo sapiens, UniProt P08581); assay: Binding affinity to wild type c-MET (unknown origin) assessed as dissociation constant measured for 120 sec by SPR analysis
T1 sequence (P08581 whole entry): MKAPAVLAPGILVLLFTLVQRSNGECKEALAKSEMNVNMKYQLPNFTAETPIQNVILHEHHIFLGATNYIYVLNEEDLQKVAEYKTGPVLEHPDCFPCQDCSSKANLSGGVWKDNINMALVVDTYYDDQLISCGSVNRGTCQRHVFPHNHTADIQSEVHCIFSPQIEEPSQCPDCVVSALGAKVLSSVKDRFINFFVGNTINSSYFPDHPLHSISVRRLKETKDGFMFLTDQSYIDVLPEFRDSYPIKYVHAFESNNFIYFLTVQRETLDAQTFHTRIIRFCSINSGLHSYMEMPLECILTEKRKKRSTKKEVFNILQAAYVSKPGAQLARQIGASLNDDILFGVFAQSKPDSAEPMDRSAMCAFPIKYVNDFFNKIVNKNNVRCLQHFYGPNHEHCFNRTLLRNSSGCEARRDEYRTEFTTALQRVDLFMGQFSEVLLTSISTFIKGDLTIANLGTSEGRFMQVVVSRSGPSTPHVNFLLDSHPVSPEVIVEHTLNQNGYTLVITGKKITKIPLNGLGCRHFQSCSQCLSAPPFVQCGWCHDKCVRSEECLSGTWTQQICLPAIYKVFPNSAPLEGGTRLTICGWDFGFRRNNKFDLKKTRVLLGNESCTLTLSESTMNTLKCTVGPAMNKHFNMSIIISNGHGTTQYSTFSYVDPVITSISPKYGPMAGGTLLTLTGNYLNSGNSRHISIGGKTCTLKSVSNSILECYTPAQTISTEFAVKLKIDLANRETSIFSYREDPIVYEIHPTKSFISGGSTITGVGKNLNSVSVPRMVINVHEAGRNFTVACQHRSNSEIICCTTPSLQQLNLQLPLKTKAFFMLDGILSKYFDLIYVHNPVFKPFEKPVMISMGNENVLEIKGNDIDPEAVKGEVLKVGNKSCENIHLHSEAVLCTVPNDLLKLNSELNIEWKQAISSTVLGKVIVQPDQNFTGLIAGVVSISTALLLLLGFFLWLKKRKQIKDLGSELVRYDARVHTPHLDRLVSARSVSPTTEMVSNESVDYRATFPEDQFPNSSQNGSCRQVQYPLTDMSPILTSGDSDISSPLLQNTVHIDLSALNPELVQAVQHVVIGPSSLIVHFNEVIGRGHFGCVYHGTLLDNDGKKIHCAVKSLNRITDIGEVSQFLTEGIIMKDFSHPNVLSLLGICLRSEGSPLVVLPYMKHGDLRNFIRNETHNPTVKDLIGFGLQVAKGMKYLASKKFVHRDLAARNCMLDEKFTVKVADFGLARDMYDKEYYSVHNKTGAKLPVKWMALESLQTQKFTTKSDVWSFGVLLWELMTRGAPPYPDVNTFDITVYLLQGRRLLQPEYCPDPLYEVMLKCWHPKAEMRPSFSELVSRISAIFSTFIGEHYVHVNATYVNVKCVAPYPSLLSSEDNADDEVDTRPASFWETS

[5] = biological target: T1, Hepatocyte growth factor receptor; assay: Inhibition of wild type c-MET (unknown origin) using ATP and poly(L-glutamic acid-L-tyrosine) as substrate incubated for 60 mins measured by ADP-Glo kinase assay
[6] = Oral bioavailability in Han Wistar rat plasma at 1 mg/kg, measured for 1 to 24 hrs by LC-MS/MS analysis; type: ADME, organism-based; details: in vivo, time 1-24 hrs
[7] = Ratio of drug concentration in brain to plasma of Han Wistar rat plasma at 2 micromol/kg per hour measured after 4 hrs by LC-MS/MS analysis; type: ADME; details: dose 2 µmol/kg
[8] = Metabolic stability in human hepatocytes assessed as intrinsic clearance measured per million cells at 1 uM measured at 0.5 to 2 hrs by LC-MS/MS analysis; type: ADME, cell-based, Hepatocyte; details: time 0.5-2 hrs, read-out: CLH
[9] = Permeability across basolateral to apical side in MDCK cells at 10 uM by LC-MS/MS analysis; type: ADME, cell-based, Canis lupus familiaris; details: dog, read-out: permeability
[10] = Volume of distribution at steady state in Han Wistar rat plasma at 1 mg/kg, po or 0.5 mg/kg, iv measured for 1 to 24 hrs by LC-MS/MS analysis; type: ADME, organism-based; details: in vivo, time 1-24 hrs
[11] = biological target: T1, Hepatocyte growth factor receptor; assay: Inhibition of wild type c-MET in human NCI-H1993 cells incubated for 4 hrs measured by HTRF assay; type: cell-based

Compound	hepatocyte CLint at 1 µM [1] [µL/min/1e6 cells]	logD [2]	microsomal CLint at 1 µM [3] [µL/min/mg]	Kd [4] [nM]	IC50 [5] [nM]	F [6] [%]	K(p,uu,brain) [7]	hepatocyte CLint at 1 µM [8] [µL/min/1e6 cells]	Papp B→A at 10 µM [9] [×10⁻⁶ cm/s]	Vdss [10] [L/kg]	EC50 [11] [nM]
C[C@@H](c1ccccc1)n1cc(-c2cc(F)cc(F)c2)c(=O)[nH]c1=O	133	3.1	7.68	920	–	–	–	–	–	–	–
CC(c1ccccc1)n1cc(-c2c(F)ccc3cn[nH]c23)c(=O)[nH]c1=O (configuration not stated)	28.3	2.5	7.35	440	2200	–	–	–	–	–	–
CC(c1ccccc1)n1cc(-c2cc(F)cc3c(C#N)n[nH]c23)c(=O)[nH]c1=O (configuration not stated)	51.4	3.1	11.4	87	130	–	–	–	–	–	–
O=c1[nH]c(=O)n(Cc2ccccc2)cc1-c1cc(F)cc(F)c1	76.7	3	20.6	> 100000	–	–	–	–	–	–	–
CC(c1cccc(-c2c[nH]cn2)c1)n1cc(-c2cccc3cn[nH]c23)c(=O)[nH]c1=O (configuration not stated)	5.84	2.3	8.92	460	–	–	–	–	–	–	–
CC(c1ccccc1)n1cc(-c2ncccn2)c(=O)[nH]c1=O (configuration not stated)	4.67	0.85	< 3	2700	–	–	–	–	–	–	–
CC(c1cccc(-c2cn[nH]c2)c1)n1cc(-c2cc(F)cc(F)c2)c(=O)[nH]c1=O (configuration not stated)	22.3	3.4	< 3	800	–	–	–	–	–	–	–
CC(c1ccc(F)cc1)n1cc(-c2cc(F)cc(F)c2)c(=O)[nH]c1=O (configuration not stated)	26.8	–	17.4	1200	–	–	–	–	–	–	–
C#Cc1n[nH]c2c(-c3cn(C(C)c4ccccc4)c(=O)[nH]c3=O)cccc12 (configuration not stated)	9.1	3.2	12.8	–	40	–	–	–	–	–	–
CC(c1ccccc1)n1cc(-c2cc(F)cc3cn[nH]c23)c(=O)[nH]c1=O (configuration not stated)	14	2.5	4.04	120	400	–	–	–	–	–	–
Cc1n[nH]c2c(-c3cn(C(C)c4ccccc4)c(=O)[nH]c3=O)cccc12 (configuration not stated)	37	2.7	17.8	180	430	–	–	–	–	–	–
CC(c1ccc(F)cc1)n1cc(-c2cc(F)cc3cn[nH]c23)c(=O)[nH]c1=O (configuration not stated)	11.9	2.7	5.61	–	530	–	–	–	–	–	–
CC(c1cccc(Cl)c1)n1cc(-c2cc(F)cc(F)c2)c(=O)[nH]c1=O (configuration not stated)	177	3.8	27.4	1000	–	–	–	–	–	–	–
CC(c1ccccc1)n1cc(-c2cccc3c(C#N)n[nH]c23)c(=O)[nH]c1=O (configuration not stated)	41.4	2.9	32.7	200	500	–	–	–	–	–	–
CC(c1ccccc1)n1cc(-c2cccc3cn[nH]c23)c(=O)[nH]c1=O (configuration not stated)	46.1	2.4	6.13	240	1300	–	–	–	–	–	–
CC(c1cccc(-c2cc[nH]n2)c1)n1cc(-c2cc(F)cc(F)c2)c(=O)[nH]c1=O (configuration not stated)	24.7	3.5	5.04	2600	–	–	–	–	–	–	–
CC(c1ccccc1)n1cc(-c2cc(F)cc(F)c2)c(=O)[nH]c1=O (configuration not stated)	123	3.2	17.8	2500	–	–	–	–	–	–	–
C#Cc1n[nH]c2c(-c3cn(C(C)c4ccccn4)c(=O)[nH]c3=O)cc(F)cc12 (configuration not stated)	–	2.5	–	–	55	91	0.022	1.29	37.9	1.6	–
CC(c1ccccn1)n1cc(-c2cc(F)cc3c(C#N)n[nH]c23)c(=O)[nH]c1=O (configuration not stated)	3.08	2.1	< 3	–	1200	–	–	–	–	–	> 29800
C[C@@H](c1ccc(F)cc1)n1cc(-c2cc(F)cc3cn[nH]c23)c(=O)[nH]c1=O	–	2.8	–	–	150	57	0.11	1.81	22.4	4.3	–
CC(c1cccc(-c2c[nH]cn2)c1)n1cc(-c2cc(F)cc(F)c2)c(=O)[nH]c1=O (configuration not stated)	6.03	3.2	16.2	520	–	–	–	–	–	–	–
CC(c1ccccc1Cl)n1cc(-c2cc(F)cc(F)c2)c(=O)[nH]c1=O (configuration not stated)	227	3.6	38.3	36000	–	–	–	–	–	–	–
CC(c1ccccc1)n1cc(-c2ccccc2)c(=O)[nH]c1=O (configuration not stated)	185	2.7	50.1	3900	–	–	–	–	–	–	–
CC(c1ccccc1)n1cc(-c2cccc3c(F)n[nH]c23)c(=O)[nH]c1=O (configuration not stated)	49.4	3	32.4	240	810	–	–	–	–	–	–
C[C@@H](c1ccc(F)cc1)n1cc(-c2cc(F)cc3c(C#N)n[nH]c23)c(=O)[nH]c1=O	–	3.3	–	–	75	96	0.014	2.48	25.6	1.5	–
CC(c1ccccc1)n1cc(-c2ccc3[nH]ccc3c2)c(=O)[nH]c1=O (configuration not stated)	217	2.9	25.4	520	–	–	–	–	–	–	–
C#Cc1n[nH]c2c(-c3cn(C(C)c4ccccc4)c(=O)[nH]c3=O)cc(F)cc12 (configuration not stated)	–	3.3	–	–	31	100	0.1	4.27	14.2	4.6	1950
CC(c1ccccc1)n1cc(-c2ccccn2)c(=O)[nH]c1=O (configuration not stated)	300	2.2	12.6	4500	–	–	–	–	–	–	–
CC(c1ccc(F)cc1)n1cc(-c2cc(F)cc3c(C#N)n[nH]c23)c(=O)[nH]c1=O (configuration not stated)	4.4	3.2	< 3	–	310	–	–	–	–	–	18700
